Data on one substance can be found in article PMC6796237 (ACS Omega, 2019).

This assay addresses recombinant HCV NS3/4A GT1b wt (Hepatitis C virus genotype 1b, UniProt Q9WMX2). Briefly: HCV NS3/4A enzymatic inhibition assay, wild type. In kind it is biochemical. To be noted: compounds at 13.08, 14.68, 4.60 μM of 1, 12, 22; 40 nM enzyme.

Chain of recombinant HCV NS3/4A GT1b wt (Q9WMX2 1027-1657 limits assumed): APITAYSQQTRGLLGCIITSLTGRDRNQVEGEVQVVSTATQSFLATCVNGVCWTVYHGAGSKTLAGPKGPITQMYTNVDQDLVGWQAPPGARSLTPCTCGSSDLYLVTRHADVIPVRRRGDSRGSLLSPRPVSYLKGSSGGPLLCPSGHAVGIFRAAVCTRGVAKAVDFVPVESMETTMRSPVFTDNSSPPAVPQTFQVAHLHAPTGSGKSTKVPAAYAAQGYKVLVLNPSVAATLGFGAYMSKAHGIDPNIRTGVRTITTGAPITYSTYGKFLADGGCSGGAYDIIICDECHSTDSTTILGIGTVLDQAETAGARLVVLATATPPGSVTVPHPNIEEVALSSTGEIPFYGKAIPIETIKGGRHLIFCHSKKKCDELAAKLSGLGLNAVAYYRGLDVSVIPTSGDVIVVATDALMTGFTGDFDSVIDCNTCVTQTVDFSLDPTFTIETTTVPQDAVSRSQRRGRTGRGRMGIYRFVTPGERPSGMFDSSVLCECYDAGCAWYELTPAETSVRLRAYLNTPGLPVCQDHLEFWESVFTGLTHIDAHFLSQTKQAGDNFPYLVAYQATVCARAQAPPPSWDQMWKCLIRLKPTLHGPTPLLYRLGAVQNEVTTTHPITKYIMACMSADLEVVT
Chain of recombinant HCV NS3/4A GT1b wt (Q9WMX2 1658-1711 partner limits assumed): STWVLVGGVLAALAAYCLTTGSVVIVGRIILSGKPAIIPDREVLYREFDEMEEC

For “3-(1H-Indol-3-yl)-2-(3-(4-isopropylphenyl)ureido)-N-(3-(piperidin-1-yl)propyl)propenamide [Compound 22]”, the “Decrease of HCV NS3/4A activity” value is recorded as “about 50%”.
